According to patent US8999976B2, “Modulators of cystic fibrosis transmembrane conductance regulator” (Vertex Pharmaceuticals Incorporated, priority 2008, dated 2015):
Where a name gives a salt, the structure may show the parent alone.

Target: T1, ΔF508-CFTR (Homo sapiens, UniProt P13569, DEL508-508)
T1 construct: expressed in transfected cells
Test: Membrane potential optical assay for potentiators of ΔF508-CFTR (FLIPR III, voltage sensing dyes)
Type: cell-based
Settings: for Emax: NIH3T3, 100% efficacy is the maximum response obtained with 4-methyl-2-(5-phenyl-1H-pyrazol-3-yl)phenol, ΔF508 CFTR NIH 3T3 cells; for EC50: temperature-corrected ΔF508 CFTR NIH 3T3 cells, forskolin activation
Source text: The assay utilizes fluorescent voltage sensing dyes to measure changes in membrane potential using a fluorescent plate reader (e.g., FLIPR III, Molecular Devices, Inc.) as a readout for increase in functional ΔF508-CFTR in NIH 3T3 cells.
To identify potentiators of ΔF508-CFTR, a double-addition HTS assay format was developed. This HTS assay utilizes fluorescent voltage sensing dyes to measure changes in membrane potential on the FLIPR III as a measurement for increase in gating (conductance) of ΔF508 CFTR in temperature-corrected ΔF508 CFTR NIH 3T3 cells.
Solutions • Bath Solution #1: (in mM) NaCl 160, KCl 4.5, CaCl2 2, MgCl2 1, HEPES 10, pH 7.4 with NaOH. • Chloride-Free Bath Solution: Chloride Salts in Bath Solution #1 are Substituted with Gluconate Salts.
NIH3T3 mouse fibroblasts stably expressing ΔF508-CFTR are used for optical measurements of membrane potential. The cells are maintained at 37° C. in 5% CO2 and 90% humidity in Dulbecco's modified Eagle's medium supplemented with 2 mM glutamine, 10% fetal bovine serum, 1×NEAA, β-ME, 1×pen/strep, and 25 mM HEPES in 175 cm^2 culture flasks. For all optical assays, the cells were seeded at ˜20,000/well in 384-well matrigel-coated plates and cultured for 2 hrs at 37° C. before culturing at 27° C. for 24 hrs. for the potentiator assay. For the correction assays, the cells are cultured at 27° C. or 37° C. with and without compounds for 16-24 hours. Electrophysiological Assays for assaying ΔF508-CFTR modulation properties of compounds.

T1 sequence (P13569 with tags, fused parts or gaps DEL508-508): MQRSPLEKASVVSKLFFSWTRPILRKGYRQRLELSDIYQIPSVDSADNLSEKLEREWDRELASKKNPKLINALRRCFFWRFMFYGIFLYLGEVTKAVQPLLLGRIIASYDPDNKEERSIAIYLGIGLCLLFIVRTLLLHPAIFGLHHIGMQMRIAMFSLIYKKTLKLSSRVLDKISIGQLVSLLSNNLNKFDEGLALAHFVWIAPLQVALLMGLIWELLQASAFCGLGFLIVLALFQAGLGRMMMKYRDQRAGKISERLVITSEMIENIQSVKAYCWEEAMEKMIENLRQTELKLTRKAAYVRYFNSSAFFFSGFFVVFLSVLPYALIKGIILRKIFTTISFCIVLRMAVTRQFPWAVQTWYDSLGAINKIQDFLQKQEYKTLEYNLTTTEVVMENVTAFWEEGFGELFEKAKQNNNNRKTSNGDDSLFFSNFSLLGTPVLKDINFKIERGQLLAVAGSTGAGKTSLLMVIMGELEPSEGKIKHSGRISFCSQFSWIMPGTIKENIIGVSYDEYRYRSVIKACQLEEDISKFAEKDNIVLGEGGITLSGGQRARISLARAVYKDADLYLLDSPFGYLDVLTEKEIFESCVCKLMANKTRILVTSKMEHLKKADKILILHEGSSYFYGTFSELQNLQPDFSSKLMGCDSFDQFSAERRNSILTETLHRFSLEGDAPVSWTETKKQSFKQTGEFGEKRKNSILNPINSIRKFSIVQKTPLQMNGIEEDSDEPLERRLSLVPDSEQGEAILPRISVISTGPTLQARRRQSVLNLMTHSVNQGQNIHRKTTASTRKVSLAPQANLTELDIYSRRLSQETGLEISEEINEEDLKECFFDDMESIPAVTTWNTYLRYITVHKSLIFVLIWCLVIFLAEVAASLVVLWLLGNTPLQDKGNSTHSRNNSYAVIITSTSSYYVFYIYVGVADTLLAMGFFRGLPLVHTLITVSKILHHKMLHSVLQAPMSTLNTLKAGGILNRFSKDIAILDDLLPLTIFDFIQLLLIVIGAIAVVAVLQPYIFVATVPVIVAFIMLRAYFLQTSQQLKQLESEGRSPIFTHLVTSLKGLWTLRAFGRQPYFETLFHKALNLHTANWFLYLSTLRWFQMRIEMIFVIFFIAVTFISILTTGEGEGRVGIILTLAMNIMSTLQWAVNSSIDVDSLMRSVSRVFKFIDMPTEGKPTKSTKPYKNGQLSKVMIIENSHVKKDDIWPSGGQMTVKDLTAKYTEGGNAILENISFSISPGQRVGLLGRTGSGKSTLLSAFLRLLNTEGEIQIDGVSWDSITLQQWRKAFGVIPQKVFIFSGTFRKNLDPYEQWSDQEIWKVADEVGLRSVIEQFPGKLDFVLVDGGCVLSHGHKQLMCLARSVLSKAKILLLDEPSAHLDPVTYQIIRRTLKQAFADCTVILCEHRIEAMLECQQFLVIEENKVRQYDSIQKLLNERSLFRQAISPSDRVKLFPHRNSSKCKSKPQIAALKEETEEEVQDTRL

| Emax [%] | EC50 [µM] | Compound |
| --- | --- | --- |
| 25 to 100 | < 5 | Cc1ccc(NC(=O)C2CNc3cc(OC(F)(F)F)ccc3O2)c(C#CCN2CCC(F)(F)C2)c1 (centres unmarked) [Compound 45] |
| 25 to 100 | 5 to 20 | CN(C)CC#Cc1cc(F)ccc1NC(=O)C1CNc2cc(C#N)ccc2O1 (centres unmarked) [Compound 114] |
| < 25 | 5 to 20 | Cc1ccc(NC(=O)C2CNc3cc(OC(F)(F)F)ccc3O2)c(C#CCN2CCC(N)CC2)c1 (centres unmarked) [Compound 101] |
| 25 to 100 | < 5 | O=C(O)CCc1cc(C2CCCC2)c(O)cc1NC(=O)C1CNc2cc(OC(F)(F)F)ccc2O1 (centres unmarked) [Compound 16] |
| 25 to 100 | < 5 | CC(C)(C)c1cc(C2CCCC2)c(O)cc1NC(=O)C1CNc2cc(S(C)(=O)=O)ccc2O1 (centres unmarked) [Compound 66] |
| 25 to 100 | < 5 | C[C@H]1CCCN1c1ccc(NC(=O)C2CNc3ccccc3O2)c(C(F)(F)F)c1 (some centres unmarked) [Compound 89] |
| 25 to 100 | < 5 | CC1(c2cc(F)c(NC(=O)C3CNc4ccccc4O3)cc2O)CCCCC1 (centres unmarked) [Compound 99] |
| 25 to 100 | < 5 | O=C(Nc1cc(O)cc(C(F)(F)F)c1)C1CNc2ccccc2O1 (centres unmarked) [Compound 57] |
| 25 to 100 | < 5 | CN(C)CC#Cc1cc(C2CCCC2)c(O)cc1NC(=O)C1CNc2cc(C#N)ccc2O1 (centres unmarked) [Compound 34] |
| 25 to 100 | < 5 | CC1(C(=O)Nc2cc(O)c(C3CCCC3)cc2C(F)(F)F)CNc2cc(OC(F)(F)F)ccc2O1 (centres unmarked) [Compound 128] |
| 25 to 100 | < 5 | CC1(c2cc(F)c(NC(=O)[C@H]3CNc4ccccc4O3)cc2O)CCCCC1 [Compound 80] |
| 25 to 100 | < 5 | O=C(Nc1cc(O)c(C2CCCC2)cc1C(F)(F)F)[C@H]1CNc2cc(F)ccc2O1 [Compound 93] |
| > 100 | < 5 | Cc1cc(CN2CCC(C)CC2)c(NC(=O)C2CNc3cc(OC(F)(F)F)ccc3O2)cc1O (centres unmarked) [Compound 126] |
| 25 to 100 | < 5 | CN1CCN(Cc2cc(C3CCCC3)c(O)cc2NC(=O)C2CNc3ccccc3O2)CC1 (centres unmarked) [Compound 52, N-(4-cyclopentyl-5-hydroxy-2-((4-methylpiperazin-1-yl)methyl)phenyl)-3,4-dihydro-2H-benzo[b][1,4]oxazine-2-carboxamide] |
| 25 to 100 | 5 to 20 | CC(C)Oc1c(O)cccc1NC(=O)C1CNc2ccc(F)cc2O1 (centres unmarked) [Compound 112] |
| < 25 | 5 to 20 | N#Cc1ccc2c(c1)NCC(C(=O)Nc1cc(O)c(C3CCCC3)cc1C1CCNCC1)O2 (centres unmarked) [Compound 113] |
| 25 to 100 | < 5 | CC1(c2cc(F)c(NC(=O)C3CNc4cc(OC(F)(F)F)ccc4O3)cc2O)CCCCC1 (centres unmarked) [Compound 108] |
| 25 to 100 | < 5 | Cc1cc(C2CCCC2)c(O)cc1NC(=O)C1CNc2ccc(F)cc2O1 (centres unmarked) [Compound 21] |
| 25 to 100 | < 5 | CC1(c2cc(F)c(NC(=O)C3CNc4cc(F)ccc4O3)cc2O)CCCCC1 (centres unmarked) [Compound 18] |
| 25 to 100 | < 5 | CC(C)(C)c1cc(C(C)(C)C)c(NC(=O)C2CNc3cc(F)c(F)cc3O2)cc1O (centres unmarked) [Compound 8] |
| 25 to 100 | < 5 | Cc1cc(C2CCCC2)c(O)cc1NC(=O)C1CNc2cc(S(C)(=O)=O)ccc2O1 (centres unmarked) [Compound 72] |
| 25 to 100 | < 5 | CN(C)CC#Cc1cc(C2CCCC2)c(O)cc1NC(=O)[C@@H]1CNc2ccccc2O1 [Compound 37] |
| 25 to 100 | 5 to 20 | Cc1ccc(NC(=O)C2CNc3cc(OC(F)(F)F)ccc3O2)c(CCCN(C)C)c1 (centres unmarked) [Compound 81] |
| 25 to 100 | < 5 | O=C(Nc1cc(O)c(C2CCCC2)cc1C(F)(F)F)C1CNc2ccc(F)cc2O1 (centres unmarked) [Compound 31] |
| 25 to 100 | 5 to 20 | O=C(Nc1ccc2c(C(F)(F)F)c[nH]c2c1)C1CNc2ccccc2O1 (centres unmarked) [Compound 30] |
| 25 to 100 | < 5 | O=C(Nc1cc(O)c(C2CCCC2)cc1Cl)C1CNc2ccc(F)cc2O1 (centres unmarked) [Compound 103] |
| 25 to 100 | < 5 | O=C(Nc1cc(O)c(C2CCCC2)cc1C(F)(F)F)[C@H]1CNc2cc(OC(F)(F)F)ccc2O1 [Compound 32] |

| Emax [%] | EC50 [µM] | Compound |
| --- | --- | --- |
| 25 to 100 | < 5 | CN(C(=O)C1CNc2ccccc2O1)c1ccc(C(C)(C)C)c(O)c1 (centres unmarked) [Compound 115, N-(4-tert-butyl-3-hydroxyphenyl)-N-methyl-3,4-dihydro-2H-benzo[b][1,4]oxazine-2-carboxamide hydrochloride] |
| 25 to 100 | < 5 | Cc1ccc(NC(=O)C2CNc3cc(OC(F)(F)F)ccc3O2)c(C#CCN2CCN(C)CC2)c1 (centres unmarked) [Compound 62] |
| 25 to 100 | < 5 | NCC#Cc1cc(C2CCCC2)c(O)cc1NC(=O)C1CNc2cc(OC(F)(F)F)ccc2O1 (centres unmarked) [Compound 40] |
| < 25 | 5 to 20 | COc1ccc2c(c1)NCC(C(=O)Nc1ccc(C(C)(C)C)c(O)c1)O2 (centres unmarked) [Compound 14] |
| 25 to 100 | < 5 | CC(C)(C)c1ccc(NC(=O)C2CNc3ccc(F)cc3O2)cc1O (centres unmarked) [Compound 35] |
| 25 to 100 | < 5 | Cc1ccc(NC(=O)C2CNc3cc(OC(F)(F)F)ccc3O2)c(C#CCN(C)C)c1 (centres unmarked) [Compound 26] |
| 25 to 100 | < 5 | Cc1cc(C)c(NC(=O)C2CNc3cc(OC(F)(F)F)ccc3O2)c(C#CCN(C)C)c1 (centres unmarked) [Compound 15] |
| 25 to 100 | < 5 | Cc1cc2c(cc1F)NCC(C(=O)Nc1cc(O)c(C(C)(C)C)cc1C(C)(C)C)O2 (centres unmarked) [Compound 6] |
| 25 to 100 | < 5 | Cc1ccc(NC(=O)C2CNc3cc(OC(F)(F)F)ccc3O2)c(-c2nc(CN(C)C)no2)c1 (centres unmarked) [Compound 129] |
| 25 to 100 | < 5 | O=C(Nc1cc(O)c(C2CCCC2)cc1C#CCO)C1CNc2cc(OC(F)(F)F)ccc2O1 (centres unmarked) [Compound 12] |
| 25 to 100 | < 5 | CC1(c2cc(F)c(NC(=O)C3CNc4ccc(F)cc4O3)cc2O)CCCCC1 (centres unmarked) [Compound 68] |
| 25 to 100 | < 5 | Cc1ccc(NC(=O)C2CNc3cc(OC(F)(F)F)ccc3O2)c(CCN2CCOCC2)c1 (centres unmarked) [Compound 116] |
| 25 to 100 | < 5 | CN(C)CC#Cc1cc(C2CCCC2)ccc1NC(=O)C1CNc2cc(C#N)ccc2O1 (centres unmarked) [Compound 110] |
| > 100 | < 5 | O=C(Nc1cc(O)c(C2CCCC2)cc1C#CCN1CCCC1)C1CNc2cc(OC(F)(F)F)ccc2O1 (centres unmarked) [Compound 22] |
| 25 to 100 | < 5 | O=C(Nc1ccc(OC(F)(F)F)c(O)c1)C1CNc2ccc(F)cc2O1 (centres unmarked) [Compound 47] |
| > 100 | < 5 | CC(C)(C)c1cc(C2CCCC2)c(O)cc1NC(=O)[C@H]1CNc2cc(C#N)ccc2O1 [Compound 13] |
| 25 to 100 | < 5 | O=C(Nc1cc(O)c(C2CCCC2)cc1C(F)(F)F)[C@@H]1CNc2cc(OC(F)(F)F)ccc2O1 [Compound 54] |
| 25 to 100 | < 5 | Cc1ccc2c(c1)NCC(C(=O)Nc1cc(O)c(C3(C)CCCCC3)cc1F)O2 (centres unmarked) [Compound 97] |
| 25 to 100 | < 5 | Cc1ccc(NC(=O)C2CNc3cc(OC(F)(F)F)ccc3O2)c(C#CCN2CCCC2)c1 (centres unmarked) [Compound 73] |
| < 25 | < 5 | CC(C)(C)c1ccc(NC(=O)C2CNc3ccccc3[S+]2[O-])cc1O (centres unmarked) [Compound 125, N-(4-tert-butyl-3-hydroxy-phenyl)-1-oxo-3,4-dihydro-2H-benzo[b][1,4]thiazine-2-carboxamide] |
| 25 to 100 | < 5 | N#Cc1cc(C2CCCC2)c(O)cc1NC(=O)C1CNc2ccc(F)cc2O1 (centres unmarked) [Compound 23] |
| 25 to 100 | < 5 | CC(C)(C)c1cc(C2CCCC2)c(O)cc1NC(=O)[C@@H]1CNc2cc(C#N)ccc2O1 [Compound 59] |
| 25 to 100 | < 5 | Cc1cc(C#CCN(C)C)c(NC(=O)C2CNc3cc(OC(F)(F)F)ccc3O2)cc1C (centres unmarked) [Compound 127] |
| < 25 | 5 to 20 | COc1ccc2c(c1)OC(C(=O)Nc1ccc(C(C)(C)C)c(O)c1)CN2 (centres unmarked) [Compound 1] |
| 25 to 100 | < 5 | Cc1cc(C2CCCC2)c(O)cc1NC(=O)[C@H]1CNc2cc(C#N)ccc2O1 [Compound 88] |
| 25 to 100 | < 5 | Cc1cc(C#CC(=O)O)c(NC(=O)C2CNc3cc(OC(F)(F)F)ccc3O2)cc1O (centres unmarked) [Compound 96] |

| Compound | Emax [%] | EC50 [µM] |
| --- | --- | --- |
| CN(C)CC#Cc1cc(N2C3CCC2CC3)ccc1NC(=O)C1CNc2ccccc2O1 (centres unmarked) [Compound 104] | 25 to 100 | 5 to 20 |
| Cc1cc(N2C3CCC2CC3)ncc1NC(=O)C1CNc2ccc(F)cc2O1 (centres unmarked) [Compound 56] | 25 to 100 | 5 to 20 |
